Measured values: publication PMC10305218, “Expression of β-Glucosidases from the Yak Rumen in Lactic Acid Bacteria: A Genetic Engineering Approach” (Microorganisms, 2023)

Tested on: T1, Bgl
T1 construct: gene bglA; bglA-bglB fusion (usp45-bglA-usp45-bglB, pMG36e) secreted by L. lactis NZ9000; gene 2722 bp; printed about 75 kDa (less than the sum of both); supernatant / TCA-acetone precipitate
Test: DNS reducing sugar assay, Michaelis-Menten / Lineweaver-Burk fit
Type: biochemical, Paenibacillus polymyxa
Settings: 50 °C, pH 7.0; bacterial supernatant
Excerpt: DNS reducing sugar assay, Michaelis-Menten / Lineweaver-Burk fit on Bgl

SMILES: OCc1ccccc1O[C@@H]1O[C@H](CO)[C@@H](O)[C@H](O)[C@H]1O [salicin]
- Km: 34.8 µM
